The source made the active and inactive calls. How the calls were made is not given here.

Serine/threonine-protein kinase mTOR (Homo sapiens), sequence (P42345 2015-2114): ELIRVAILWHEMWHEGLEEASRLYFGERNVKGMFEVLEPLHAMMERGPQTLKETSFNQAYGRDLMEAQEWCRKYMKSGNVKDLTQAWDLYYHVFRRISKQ

The test concerns the target Serine/threonine-protein kinase mTOR (Homo sapiens) (UniProt P42345). The experiment in a line: binders of mTOR FRB domain, biophysical, NMR (AID 1648). The note with it: NMR binding to FRB domain, chemical shift.
What is called Kd is the concentration at which binding is half-saturated. Consider `CN1CCN(C(=O)C2CCCNC2)CC1` (centres undefined), for which the Kd was > 4 mM (inactive).
The result for `CC1(C)CCC(C)(C)c2cc(C(=O)O)ccc21` reads > 4 mM (inactive).
The result for `CC1=C(/C=C/C(C)=C/C=C/C(C)=C/C=C/C=C(C)/C=C/C=C(C)/C=C/C(=O)[C@]2(C)C[C@@H](O)CC2(C)C)C(C)(C)C[C@H](O)C1` reads > 4 mM (inactive); that for `O=c1c(-c2cc(O)c(O)c(O)c2)coc2cc(O)c(O)c(O)c12`, > 4 mM (inactive); that for `COc1ccc(C(N)=O)cc1NC(C)=O`, > 4 mM (inactive).
The result for `Nc1ncnc2nc[nH]c12` reads > 4 mM (inactive); that for `Cc1[nH]c2ccccc2c1C=Nn1cncn1`, > 4 mM (inactive); that for `Cc1csc(CCc2nc(C)cs2)n1`, > 4 mM (inactive).
With `O=S(=O)(O)c1cc[n+]([O-])cc1`, the Kd is > 4 mM (inactive).
Next, `CN=C1SC(CC(=O)Nc2ccc(O)cc2)C(=O)N1C` (centres undefined): > 4 mM (inactive).
For the compound `O=c1[nH]oc2ccccc12`, the Kd was > 4 mM (inactive).
The result for `CC(=O)OCC(=O)[C@@]1(O)CCC2C3CC[C@@H]4C[C@H](OC(C)=O)CC[C@]4(C)C3C(=O)C[C@@]21C` (some centres undefined) reads > 4 mM (inactive); that for `CCN1CCn2c1nc(N1CCOCC1)nc2=O`, > 4 mM (inactive); that for `CN1C(=O)c2ccc(N=C3NC(=O)CS3)cc2C1=O`, > 4 mM (inactive).
Turning to `CCn1ncc(Cl)c1C(=O)Nc1ccncc1`, the Kd is > 4 mM (inactive).
The result for `CC(=O)Nc1cccc(Cn2cccn2)c1` reads > 4 mM (inactive); that for `COc1cc(OC)c(-c2nc3cnccc3n2C)cc1OC`, > 4 mM (inactive); that for `COc1cccc(N2CCN(C(=O)c3cccnc3)CC2)c1`, > 4 mM (inactive).
Next, `c1cncc(-c2nnc(-c3cccnc3)nn2)c1`: > 4 mM (inactive).
Turning to `Cc1ccc(S(C)(=O)=O)s1`, the Kd is > 4 mM (inactive).
In the case of `Cc1ccccc1C(=O)Nc1cccc(N)c1`, the Kd was > 4 mM (inactive).
On to `COc1cc([C@@H]2c3cc4c(cc3[C@H](O)[C@H]3COC(=O)[C@@H]23)OCO4)cc(OC)c1OC`, for which the Kd is > 4 mM (inactive).
Next, `c1ccc(CNc2ncnc3nc[nH]c23)nc1`: > 4 mM (inactive).
In the case of `CN(C)c1nc(N2CCOCC2)c2cnn(C)c2n1`, the Kd was > 4 mM (inactive).
The result for `O=C(NCc1cccs1)c1ccncc1` reads > 4 mM (inactive); that for `O=C1CCCN1C(=O)CN1CCOCC1`, > 4 mM (inactive).
The result for `CC(=O)n1c(N)nc2ccccc21` reads > 4 mM (inactive); that for `O=C(Nc1ccon1)c1ccc(Br)o1`, > 4 mM (inactive).
Next, `NCc1ccc2occc2c1`: > 4 mM (inactive); `O=C(Nc1nnc(C(F)(F)F)s1)c1cccnc1`: > 4 mM (inactive).
Turning to `COc1ccc(NC(=O)/C=N/O)cc1`, the Kd was > 4 mM (inactive).
For `C[C@@H]1CC[C@@]2(OC1)O[C@H]1CC3C4CC[C@H]5C[C@@H](O)CC[C@]5(C)C4CC[C@]3(C)[C@H]1[C@@H]2C` (some centres undefined), the Kd is > 4 mM (inactive).
`CC(=O)N1CCN(c2ccc(N)cc2)CC1`: the Kd was > 4 mM (inactive).
For the compound `CSc1nnc2ccc(-c3cccnc3)nn12`, the Kd is > 4 mM (inactive).
The result for `COCC(=O)NC1CC(C)(C)NC(C)(C)C1` reads > 4 mM (inactive); that for `O=C(NCc1ccccc1F)c1cccs1`, > 4 mM (inactive).
Next, `O=S(=O)(CCN1CCCC1)c1ccccc1`: > 4 mM (inactive); `Cc1ccc(-c2nc(-c3cccnc3)no2)c(C)c1`: > 4 mM (inactive).
For `CCOc1ccc(N2C(=O)CCC2=O)cc1`, the Kd is > 4 mM (inactive).
The result for `CCOC(=O)c1cc(C)n(-n2cnnc2)c1C` reads > 4 mM (inactive); that for `CNC(=O)C(=O)Nc1ccc(C)c(C)c1`, > 4 mM (inactive).
The result for `O=c1[nH]cc(COCc2ccccc2)c(=O)[nH]1` reads > 4 mM (inactive); that for `N=c1n(N)c2ccccc2n1CCO`, > 4 mM (inactive); that for `CC1(C)Oc2ccc3ccc(=O)oc3c2CC1O` (centres undefined), > 4 mM (inactive).
As for `O=C(NCCO)c1ccccc1I`, the Kd is > 4 mM (inactive).
The result for `COc1ccc(C)cc1S(N)(=O)=O` reads > 4 mM (inactive).
The result for `CCOC(=O)CN1C(=O)c2ccccc2C1=O` reads > 4 mM (inactive).
The result for `CC(=O)c1c(O)n(C)c(=S)n(C)c1=O` reads > 4 mM (inactive); that for `Cc1cccc(NC(=O)Nc2cc(C)on2)c1`, > 4 mM (inactive).
`COC(=O)c1nc(-c2ccccc2)oc1N(C)C`: the Kd is > 4 mM (inactive).
Next, `O=C1NC(=S)N/C1=C\c1ccccc1`: > 4 mM (inactive); `c1ccc(NCc2nc(-c3ccccc3)no2)cc1`: > 4 mM (inactive).
As for `O=C(Nc1ccc(N2CCOCC2)cc1)c1cnsn1`, the Kd is > 4 mM (inactive).
Take `Cn1nnc2cc(C(=O)NCc3ccco3)ccc21`: the Kd was > 4 mM (inactive).
Consider `CC(=O)CS(=O)(=O)c1ccccc1`, for which the Kd was > 4 mM (inactive).
In the case of `O=C(O)c1ccc(CSc2ncn[nH]2)cc1`, the Kd is > 4 mM (inactive).
As for `CC1=[N+]([O-])C2(N)CCc3c(no[n+]3[O-])C2(O)C1` (centres undefined), the Kd was > 4 mM (inactive).
In the case of `CCC(=O)Nc1cccc(NC(C)=O)c1`, the Kd is > 4 mM (inactive).
With `O=C(O)c1csc(-c2ccccc2)n1`, the Kd is > 4 mM (inactive).
Next, `CC[C@H]1CN2CCC1C[C@@H]2[C@@H](O)c1ccnc2ccc(OC)cc12` (some centres undefined): > 4 mM (inactive).
Next, `C=CCc1ccc2c(c1)OCO2`: > 4 mM (inactive); `Cn1c(CNc2ccccc2)cc(=O)n(C)c1=O`: > 4 mM (inactive); `CC(C)Oc1ccc(C2CC(=O)NNC2=O)cc1` (centres undefined): > 4 mM (inactive).
Next, `C#CCCCCCCCCCCCC(O)CC(O)COC(C)=O` (centres undefined): > 4 mM (inactive); `CCc1sc(C(=O)NC)cc1Br`: > 4 mM (inactive); `CCOc1ccccc1C(=O)NC1=NCCS1`: > 4 mM (inactive).
As to `Cc1nc(NC2=NCCC(=O)N2)nc2ccccc12`, the Kd was > 4 mM (inactive).
The result for `Cc1ccc(O)c(NC(=O)c2ccco2)c1` reads > 4 mM (inactive); that for `O=C1C2C3C=CC(C3)C2C(=O)N1c1cccnc1` (centres undefined), > 4 mM (inactive).
In the case of `CC(C)CCCC(C)[C@H]1CCC2C3CC[C@H]4CC(=O)CC[C@]4(C)C3CC[C@@]21C` (some centres undefined), the Kd was > 4 mM (inactive).
The result for `CN(C)C(=S)Nc1nc2ccccc2s1` reads > 4 mM (inactive).
Next, `Nc1ccccc1-c1nc2ccccc2[nH]1`: > 4 mM (inactive).
Next, `Cc1ccc(NC(=O)/C=C2\SC(=O)NC2=O)cc1`: > 4 mM (inactive); `Cn1nccc1N`: > 4 mM (inactive).
Take `Cc1c(C(=O)NCc2ccccn2)oc2ccccc12`: the Kd was > 4 mM (inactive).
Next, `O=C(O)/C=C1\NC(=O)c2ccccc21`: > 4 mM (inactive); `Nc1ccc2c(c1)C(=O)OC2`: > 4 mM (inactive); `CC(C)=CCC1=C(O)c2ccccc2C(=O)C1=O`: > 4 mM (inactive).
Next, `O=C(Nc1cccc(Cl)c1)c1cnn2cccnc12`: > 4 mM (inactive); `N#Cc1cc2ccccc2nc1N`: > 4 mM (inactive); `Cn1c2ccccc2n2c(=S)[nH]nc12`: > 4 mM (inactive).
Next, `c1ccc(CCc2nc(-c3ccccn3)no2)cc1`: > 4 mM (inactive).
Take `CC(=O)Oc1cc2c(C(C)=O)coc2c2ccccc12`: the Kd was > 4 mM (inactive).
The result for `CC(C)[C@@H]1CC[C@@H](C)C[C@H]1OC(=O)c1ccccc1` reads > 4 mM (inactive).
Next, `COC(=O)C[C@H]1C(C)(C)C(OC(C)=O)[C@]2(O)C=C3C(CC[C@]4(C)C3CC(=O)O[C@H]4c3ccoc3)C1(C)C2=O` (some centres undefined): > 4 mM (inactive).
For `Cc1noc(C)c1C(=O)Nc1cccnc1`, the Kd is > 4 mM (inactive).
Next, `O=C(O)C1CC(=O)N(C2Cc3ccccc3C2)C1` (centres undefined): > 4 mM (inactive); `c1ccc(Cc2nn3c(-c4ccncc4)nnc3s2)cc1`: > 4 mM (inactive).
The result for `N=C1/C(=C\c2ccco2)C(=O)N=C2SC=NN12` reads > 4 mM (inactive); that for `O=C(O)c1cc(F)cc2c1OCOC2`, > 4 mM (inactive); that for `Nc1cc(C(=O)O)ccc1N1CCCCCC1`, > 4 mM (inactive).
The result for `O=C(Nc1nccs1)c1ccc(=O)[nH]n1` reads > 4 mM (inactive); that for `NC1CSCC1O` (centres undefined), > 4 mM (inactive); that for `Cn1c(=O)[nH]c2nc[nH]c2c1=O`, > 4 mM (inactive).
As for `CCn1c2ccccc2c2nn(C)c(=N)nc21`, the Kd was > 4 mM (inactive).
For `Oc1cc(O)c2c(c1)O[C@H](c1ccc(O)c(O)c1)[C@@H](O)C2`, the Kd is > 4 mM (inactive).
The result for `Fc1ccc(-c2n[nH]c(=S)n2CC2CCCO2)cc1` (centres undefined) reads > 4 mM (inactive); that for `O=C(O)Cn1nnnc1-c1ccc(F)cc1`, > 4 mM (inactive); that for `CN1CCC(NC(=O)C2CCCO2)CC1` (centres undefined), > 4 mM (inactive).
The result for `OCc1cccc2nonc12` reads > 4 mM (inactive); that for `Cn1c(O)c(C=NCC2CCNCC2)c(=O)n(C)c1=O`, > 4 mM (inactive).
Next, `COc1c(-c2coc3cc4c(cc3c2=O)CC(O)C(C)(C)O4)ccc2c1C=CC(C)(C)O2` (centres undefined): > 4 mM (inactive).
On to `Cn1cnc2cc(NC(=O)c3ccco3)ccc21`, for which the Kd is > 4 mM (inactive).
The result for `Cc1nc(SCC(=O)c2c[nH]c3ccccc23)n[nH]1` reads > 4 mM (inactive).
